Values of other authors, collected in patent US20240165186A1, “Synergistically Formulated Compound for Mitochondria Supplementation and Enhancement” (priority 2022, published 2024).

Details: relative to vitamin C; no test described

O=C(O)c1cc(C(=O)O)c2c(n1)C(=O)C(=O)c1cc(C(=O)O)[nH]c1-2 [PQQ, Pyrroloquinoline Quinone]
times more effective than vitamin C as an antioxidant: ≤ 1000 times
